Laboratory results from patent US20200138081A1, “Biologically active food additive for preventing and treating acute respiratory diseases and flu” (Parapharm LLC, priority 2013, published 2020).

Tests used:
Format in all cases: in vivo, human
IgM [1] = test: Example 6 ADBH, 25(OH)D and combination, IgM (immunoturbidimetric)
Excerpt: (§1) The object was to study the effect of active metabolites of vitamin D, as exemplified by 25 (OH)D, on the immune status in participants, judging by the level of immunoglobulines IgG, IgA, and IgM. 32 participants in the age range between 38 and 62 (23 females and 9 males) residing in Penza had no acute diseases and were apparently healthy. The immune status was examined before the therapy started and 30 days after that. […] Immunoglobulines were detected by an immunoturbidimetric method, using an assay kit of DiaSys Diagnostic Systems (Germany).
(§2) Table 3 presents mean values (M±m) of specific antibody response for main immunoglobulin classes IgG, IgA, and IgM.

IgG [2] = test: Example 6 ADBH, 25(OH)D and combination, IgG (immunoturbidimetric)
Excerpt: as §1, §2

IgG [3] = test: Example 5 comparative effect of ingredients and additive, serum IgG
Excerpt: (§3) The object of the study lied in analyzing comparative effect of main ingredients of the additive (the ADBH and vitamin D, separately) on the immune system of the body by variations of the main classes of immunoglobulins IgG, IgA, and IgM in blood serum. As stated previously, IgG is the main serum immunoglobuline of a healthy human amounting to 70-75% of the whole immunoglobulin fraction. It is especially active in the immune response. The serous IgA makes up to 15-20% of the whole immunoglobulin fraction. […] The IgM immunoglobulins are capable of neutralizing foreign particles, effectively activating complement, triggering defensive response mechanisms in the body.
(§4) 29 participants, 37 to 60 years old, residing in the city of Penza and suffering from frequent catarrhal diseases were examined, and low levels of immunoglobulin reference values were uncovered. In view of the task set, immunopotentiation was administered to them. Depending on the method of immune correction, the participants were divided into three groups:1st group—nine persons took a tablet of the ADBH (150 mg) twice a day for 30 days, 2nd group—8 persons took a tablet of vitamin D3 (500 IE) twice a day for 30 days, and 3rd group—12 persons took a tablet of the proposed additive (150 mg of the ADBH and 500 IE of vitamin D3) by one tablet twice a day for 30 days.

IgM [4] = test: Example 5 comparative effect of ingredients and additive, serum IgM
Excerpt: as §3, §4

ARD = test: Example 5 catamnesis, ARD during six months after the study; settings: during six months after the study was over
Procedure: as §4
In other words, an unexpected result of the combined use of the ingredients dramatically differs from that where the ingredients are employed individually. […] The result can probably be explained by the presence of an enhancer of one ingredient of the proposed additive in the other which is on full display only when the both ingredients are used jointly.

IgA = test: Example 5 comparative effect of ingredients and additive, serum IgA
Excerpt: as §3, §4

[5] = After one-month treatment, twice a day (ADBH 150 mg, 25(OH)D 50 IE; or both in one tablet)
[6] = Before, apparently healthy participants 38 to 62 years
[7] = After, one tablet twice a day for 30 days (ADBH 150 mg; vitamin D3 500 IE; additive 150 mg ADBH + 500 IE D3)
[8] = Before, participants 37 to 60 years with frequent catarrhal diseases

| Compound | IgM, M ± m (IgM [1]; [5]) | IgM, M ± m (IgM [1]; [6]) | IgG, M ± m (IgG [2]; [5]) | IgG, M ± m (IgG [2]; [6]) | IgG, M ± m (IgG [3]; [7]) | IgG, M ± m (IgG [3]; [8]) | IgM, M ± m (IgM [4]; [7]) | IgM, M ± m (IgM [4]; [8]) | falling ill with ARD in catamnesis (ARD) | IgA, M ± m (IgA; [7]) | IgA, M ± m (IgA; [8]) |
| --- | --- | --- | --- | --- | --- | --- | --- | --- | --- | --- | --- |
| C=C1CC[C@H](O)C/C1=C/C=C1\CCC[C@]2(C)[C@@H]([C@H](C)CCCC(C)(C)O)CC[C@@H]12 [25 (OH)D] | 1.82 | 1.91 | 12.39 | 12.21 | – | – | – | – | – | – | – |
| C=C1CC[C@H](O)C/C1=C/C=C1\CCC[C@]2(C)[C@@H]([C@H](C)CCCC(C)C)CC[C@@H]12 [vitamin D3] | – | – | – | – | 12.27 | 12.41 | 1.82 | 1.91 | had those diseased | 1.93 | 1.81 |
